Experimental data as given in patent US20260325542A1, “CANCER TARGETING COMPLEX, AND COMPOSITION COMPRISING SAME FOR PREVENTING OR TREATING CANCER” (EWHA UNIVERSITY - INDUSTRY COLLABORATION FOUNDATION, priority 2023, published 2026).
“Also recorded” adds a separate entry of the source.

Experiments:
Bcl-2 = assay: Western blot, Bcl-2 level in 4T1 cells; assay type: cell-based, mouse; details: 0 to 10 μM, 24 hours
Description: (§1) Accordingly, Western blot analysis was performed to confirm the anticancer ability by evaluating the presence or absence of degradation of BRD4 and other related proteins (e.g., c-Myc and Bcl-2) when cancer cells were treated with the complex for cancer targeting (ECMal-PROTAC) of example 1. The complex for cancer targeting (ECMal-PROTAC) of example 1 and ARV-771 were prepared as samples.
(§2) First, 1×10^5 4T1 cells were dispensed into each well of a 6-well culture plate and cultured for 24 hours at 37° C. and 5% carbon dioxide atmosphere. The cell culture medium was supplemented with various concentrations of ARV-771 (0 to 10 μM) or the complex for cancer targeting (ECMal-PROTAC) of example 1 (0 to 10 μM), and cultured at 37° C. for 24 hours. After the culture was completed, the cells were washed 3 times with PBS, and lysed with a lysis buffer containing 1% […]. Cell debris from the recovered lysate was removed by centrifugation at 12,000 rpm for 25 minutes. After recovering the supernatant, the protein amount was measured using a BCA kit. The supernatant was loaded onto a 10% sodium dodecyl sulfate-polyacrylamide gel. Electrophoresis (SDS-PAGE) was performed, followed by blotting onto a polyvinylidene difluoride (PVDF) membrane. […] The immunoreactive bands on the PVDF membrane were analyzed through an ECL (enhanced chemiluminescence) system.

BRD4 [1] = molecular target: T1, BRD4 (Mus musculus, UniProt Q9ESU6); assay: DAB staining of excised cancer tissue; assay type: in vivo; details: FIG. 34
T1 construct: Western blot after PROTAC (ARV-771 release, VHL recruiting)
Description: (§3) The control group was administered saline (10 mg/kg) once every 3 days for 15 days through the tail vein (total 4 administrations). The comparison group was administered ARV-771 (10 mg/kg) once every 3 days for 15 days through the tail vein (total 4 administrations). The example group was administered ECMal-PROTAC 10 mg/kg (wquiv. to ARV-771) of example 1 once every 3 days for 15 days through the tail vein (total 4 administrations).
FIG. 34 is the result of DAB staining of cancer tissue excised from the control group, the comparison group, and the example group.

cancer tissue = assay: TUNEL analysis of excised cancer tissue; assay type: in vivo, mouse; details: cancer tissue excised after 15 days
Description: Cancer animal models were prepared by inoculating 1×10^6 4T1 cells into the left thigh of the mice, and raising them until the tumor volume reached 50-80 mm^3.
as §3
(§4) The control group, the comparison group, and the example group were euthanized after 15 days, and major organs (heart, liver, lung, spleen, kidney) and cancer tissue were excised.
(§5) Furthermore, to analyze cancer cell apoptosis, TUNEL (terminal deoxynucleotidyl transferase dUTP nick end labeling) analysis was performed on cancer tissue excised from the control group, the comparison group, and the example group. Next, histological analysis was performed by H&E (hematoxylin & eosin) staining of the major organ tissues and cancer tissue of each excised group.

[2] = system: organ tissue and cancer tissue; assay: H&E histology of major organs and cancer tissue; assay type: in vivo, mouse; details: excised after 15 days
Description: as §3, §4, §5
According to FIG. 29, major organ tissue and cancer tissue were excised from the control group, the comparison group, and the example group after 15 days. The excised organ tissue and cancer tissue were stained with H&E (hematoxylin & eosin). The H&E stained tissue was observed using a BX51 optical microscope (Olympus, Tokyo, Japan) and a TCS SP8 confocal laser microscope.

BRD4 [3] = molecular target: T1, BRD4; assay: Western blot, BRD4 degradation in 4T1 cells; assay type: cell-based; details: 24 hours
Description: as §1
First, 1×10^5 4T1 cells were dispensed into each well of a 6-well culture plate and cultured for 24 hours at 37° C. and 5% carbon dioxide atmosphere. The cell culture medium was supplemented with various concentrations of ARV-771 (0 to 10 μM) or the complex for cancer targeting (ECMal-PROTAC) of example 1 (0 to 10 μM), and cultured at 37° C. for 24 hours. After the culture was completed, the cells were washed 3 times with PBS, and lysed with a lysis buffer containing 1% […]. Cell debris from the recovered lysate was removed by centrifugation at 12,000 rpm for 25 minutes. After recovering the supernatant, the protein amount was measured using a BCA kit. The supernatant was loaded onto a 10% sodium dodecyl sulfate-polyacrylamide gel. Electrophoresis (SDS-PAGE) was performed, followed by blotting onto a polyvinylidene difluoride (PVDF) membrane. After blotting, the PVDF membrane was treated with 5% BSA-containing tris buffered saline containing 0.1% Tween 20 (TBS-T) for 2 hours to suppress the non-specific binding of IgG (immunoglobulin G). It was immediately exposed to a rabbit anti-mouse primary antibody (1,000:1). After treating at 4° C. for 24 hours, the PVDF membrane was washed 3 times with TBS-T and further incubated with an HRP-conjugated mouse anti-rabbit IgG antibody at room temperature for 1 hour. The immunoreactive bands on the PVDF membrane were analyzed through an ECL (enhanced chemiluminescence) system.

c-Myc = assay: Western blot, c-Myc level in 4T1 cells; assay type: cell-based, mouse; details: 0 to 10 μM, 24 hours
Description: as §1, §2

[4] = molecular target: T2, BSA (bovine serum albumin) (Bos taurus, UniProt P02769); assay: In vitro binding of ECMal-PROTAC to albumin (thiol-maleimide reaction), RP-HPLC; details: BSA 200 μM, ECMal-PROTAC 140 μM, 1:1 volume ratio
T2 construct: free Cys34 thiol reacts with maleimide
T2 sequence (P02769 25-607): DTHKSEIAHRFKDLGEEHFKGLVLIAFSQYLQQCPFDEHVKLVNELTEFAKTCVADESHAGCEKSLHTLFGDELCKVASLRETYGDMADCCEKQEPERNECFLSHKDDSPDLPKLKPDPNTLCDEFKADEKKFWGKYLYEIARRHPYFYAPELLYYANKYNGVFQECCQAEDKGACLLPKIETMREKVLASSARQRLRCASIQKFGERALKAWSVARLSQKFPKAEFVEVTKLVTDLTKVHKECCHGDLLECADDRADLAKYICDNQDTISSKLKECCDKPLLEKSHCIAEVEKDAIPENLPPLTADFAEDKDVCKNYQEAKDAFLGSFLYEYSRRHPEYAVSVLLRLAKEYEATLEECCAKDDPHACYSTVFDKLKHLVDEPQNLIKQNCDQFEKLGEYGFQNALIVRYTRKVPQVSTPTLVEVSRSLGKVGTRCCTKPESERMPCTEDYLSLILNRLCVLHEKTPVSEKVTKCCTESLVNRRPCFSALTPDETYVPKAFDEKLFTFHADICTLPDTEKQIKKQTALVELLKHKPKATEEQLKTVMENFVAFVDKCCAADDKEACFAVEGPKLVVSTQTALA
Description: The binding rate of ECMal-PROTAC from example 1 and albumin was confirmed through RP-HPLC. Specifically, a BSA solution (200 μM) diluted with PBS was co-incubated by mixing it with an ECMal-PROTAC aqueous solution (140 μM) of example 1 at a 1:1 volume ratio. The culture was collected at incubation times of 0 minutes, 5 minutes, 30 minutes, and 60 minutes. It was quenched with mercaptoethanol, and HPLC spectra for each sample were acquired through concentration gradient of the eluent (ACN/H2O, 20/80 to 80/20 (v/v), 30 minutes).
To verify the albumin binding ability of the complex for cancer targeting (ECMal-PROTAC) of example 1, the mixture of BSA and the complex for cancer targeting (ECMal-PROTAC) was analyzed by LC-MS spectrum, and compared with the LC-MS spectrum of free BSA.
FIG. 4 is the HPLC spectrum of a mixture of BSA and the complex for cancer targeting (ECMal-PROTAC). According to this, it can be seen that BSA and the complex for cancer targeting (ECMal-PROTAC) rapidly bind through a thiol-maleimide click chemical reaction. To confirm the albumin binding ability of the complex for cancer targeting (ECMal-PROTAC) of example 1, bovine serum albumin (BSA), which has a structure similar to human serum albumin (HSA), was used for analysis.
At this time, the HPLC spectra were also analyzed for a co-incubation of ARV-771 (140 μM) and BSA solution (200 μM) mixed at a 1:1 volume ratio as a comparative example, and for the ECMal-PROTAC solution and BSA solution alone without any treatment of example 1.
From the HPLC results for the BSA and complex for cancer targeting (ECMal-PROTAC) mixture in Experimental Example 1 and the thiol-blocked BSA and complex for cancer targeting (ECMal-PROTAC) mixture in Experimental Example 2, the reduction in the HPLC peak area associated with the complex for cancer targeting (ECMal-PROTAC) was quantified.

liver tissue = assay: TUNEL analysis of liver tissue; assay type: in vivo, mouse; details: excised after 15 days
BRD4 [5] = molecular target: T1, BRD4; assay: Western blot of excised cancer tissue, BRD4; assay type: in vivo
Description: as §3

Cc1ncsc1-c1ccc([C@H](C)NC(=O)[C@@H]2C[C@@H](OC(=O)CCCCn3nnc4c3CCC3C(CC4)C3COC(=O)NCCOCCOCCNC(=O)CCN3C(=O)C=CC3=O)CN2C(=O)[C@@H](NC(=O)COCCCOCCNC(=O)C[C@@H]2N=C(c3ccc(Cl)cc3)c3c(sc(C)c3C)-n3c(C)nnc32)C(C)(C)C)cc1 (stereo partly drawn) [ECMal-PROTAC]
Bcl-2 level (Bcl-2): reduces the levels; also recorded: reduced expression
BRD4 deficiency (DAB staining) (BRD4 [1]): BRD4 deficiency was confirmed
cancer cell apoptosis (TUNEL) (cancer tissue): cancer cell apoptosis was induced throughout the entire cancer tissue
damage to the liver tissue ([2]; H&E): does not cause damage to the liver tissue
damage in cancer tissue (H&E) [2]: strong damage
damage in organ tissue (H&E) ([2]; liver, lung, spleen, kidney, heart): No significant damage
degradation of overexpressed BRD4 protein (BRD4 [3]; 0 to 10 μM): degrades the overexpressed BRD4 protein in a concentration-dependent manner; also recorded: induce BRD4 deficiency
DC50 (BRD4 [3]; Western blot, read-out: DC50 (half-maximal degradation concentration), BRD4): 1810 nM
c-Myc level (c-Myc): reduces the levels; also recorded: reduced expression
completion of thiol-maleimide reaction with BSA within 3 minutes ([4]; within 3 minutes): more than 75%
completion of thiol-maleimide reaction with BSA within 10 minutes ([4]; within 10 minutes): 100%
apoptosis rate in liver tissue vs control (TUNEL) (liver tissue): no significant difference in the apoptosis rate
BRD4 level in cancer tissue vs control (BRD4 [5]; Western blot, 10 mg/kg): much lower levels
BRD4 level in cancer tissue, example group vs comparison group (BRD4 [5]; Western blot, vs ARV-771 group (so in the source)): no significant difference
relative expression level of BRD4, fold lower than control group (BRD4 [5]; cancer tissue, FIG. 32): 7.5 times
